Assay results as given in ChEMBL document CHEMBL1629662, “Antimicrobial activity of prulifloxacin tested against a worldwide collection of gastroenteritis-producing pathogens, including those causing traveler's diarrhea” (2009).

Columns and labels:
[1] = test system: Escherichia coli; experiment: Antibacterial activity against Escherichia coli by broth microdilution method; assay type: functional
[2] = test system: Salmonella typhimurium; experiment: Antibacterial activity against Salmonella enterica serovar Typhimurium by broth microdilution method; assay type: functional, Salmonella enterica subsp. enterica serovar Typhimurium
[3] = test system: Salmonella enteritidis; experiment: Antibacterial activity against Salmonella enterica serovar Enteritidis by broth microdilution method; assay type: functional, Salmonella enterica subsp. enterica serovar Enteritidis
[4] = test system: Shigella sonnei; experiment: Antibacterial activity against Shigella sonnei by broth microdilution method; assay type: functional
[5] = test system: Shigella flexneri; experiment: Antibacterial activity against Shigella flexneri by broth microdilution method; assay type: functional
[6] = test system: Shigella boydii; experiment: Antibacterial activity against Shigella boydii by broth microdilution method; assay type: functional
[7] = test system: Shigella dysenteriae; experiment: Antibacterial activity against Shigella dysenteriae by broth microdilution method; assay type: functional
[8] = test system: Yersinia enterocolitica; experiment: Antibacterial activity against Yersinia enterocolitica by broth microdilution method; assay type: functional
[9] = test system: Yersinia pseudotuberculosis; experiment: Antibacterial activity against Yersinia pseudotuberculosis by broth microdilution method; assay type: functional
[10] = test system: Aeromonas hydrophila; experiment: Antibacterial activity against Aeromonas hydrophila by broth microdilution method; assay type: functional
[11] = test system: Aeromonas caviae; experiment: Antibacterial activity against Aeromonas caviae by broth microdilution method; assay type: functional
[12] = test system: Aeromonas sobria; experiment: Antibacterial activity against Aeromonas sobria by broth microdilution method; assay type: functional
[13] = test system: Aeromonas veronii; experiment: Antibacterial activity against Aeromonas veronii by broth microdilution method; assay type: functional
[14] = test system: Plesiomonas shigelloides; experiment: Antibacterial activity against Plesiomonas shigelloides by broth microdilution method; assay type: functional
[15] = test system: Vibrio cholerae; experiment: Antibacterial activity against Vibrio cholerae by broth microdilution method; assay type: functional
[16] = test system: Vibrio parahaemolyticus; experiment: Antibacterial activity against Vibrio parahaemolyticus by broth microdilution method; assay type: functional
[17] = test system: Vibrio alginolyticus; experiment: Antibacterial activity against Vibrio alginolyticus by broth microdilution method; assay type: functional
[18] = test system: Vibrio fluvialis; experiment: Antibacterial activity against Vibrio fluvialis by broth microdilution method; assay type: functional
[19] = test system: Vibrio vulnificus; experiment: Antibacterial activity against Vibrio vulnificus by broth microdilution method; assay type: functional
[20] = test system: Vibrio sp.; experiment: Antibacterial activity against Vibrio sp. by broth microdilution method; assay type: functional
[21] = test system: Campylobacter jejuni; experiment: Antibacterial activity against Campylobacter jejuni by broth microdilution method; assay type: functional
[22] = test system: Campylobacter coli; experiment: Antibacterial activity against Campylobacter coli by broth microdilution method; assay type: functional
[23] = test system: Escherichia coli; experiment: Antibacterial activity against Escherichia coli assessed as percent susceptible isolates by broth microdilution method; assay type: functional
[24] = test system: Escherichia coli; experiment: Antibacterial activity against Escherichia coli assessed as percent resistant isolates by broth microdilution method; assay type: functional
[25] = test system: Salmonella typhimurium; experiment: Antibacterial activity against Salmonella enterica serovar Typhimurium assessed as percent resistant isolates by broth microdilution method; assay type: functional, Salmonella enterica subsp. enterica serovar Typhimurium; settings: pooled result: one value given for 8 cell lines, strains, targets or settings
[26] = test system: Salmonella enteritidis; experiment: Antibacterial activity against Salmonella enterica serovar Enteritidis assessed as percent susceptible isolates by broth microdilution method; assay type: functional, Salmonella enterica subsp. enterica serovar Enteritidis; settings: pooled result: one value given for 5 cell lines, strains, targets or settings
[27] = test system: Shigella sonnei; experiment: Antibacterial activity against Shigella sonnei assessed as percent resistant isolates by broth microdilution method; assay type: functional; settings: pooled result: one value given for 4 cell lines, strains, targets or settings
[28] = test system: Shigella boydii; experiment: Antibacterial activity against Shigella boydii assessed as percent susceptible isolates by broth microdilution method; assay type: functional; settings: pooled result: one value given for 3 cell lines, strains, targets or settings
[29] = test system: Yersinia enterocolitica; experiment: Antibacterial activity against Yersinia enterocolitica assessed as percent susceptible isolates by broth microdilution method; assay type: functional
[30] = test system: Yersinia enterocolitica; experiment: Antibacterial activity against Yersinia enterocolitica assessed as percent resistant isolates by broth microdilution method; assay type: functional
[31] = test system: Aeromonas hydrophila; experiment: Antibacterial activity against Aeromonas hydrophila assessed as percent susceptible isolates by broth microdilution method; assay type: functional
[32] = test system: Aeromonas hydrophila; experiment: Antibacterial activity against Aeromonas hydrophila assessed as percent resistant isolates by broth microdilution method; assay type: functional
[33] = test system: Aeromonas caviae; experiment: Antibacterial activity against Aeromonas caviae assessed as percent susceptible isolates by broth microdilution method; assay type: functional
[34] = test system: Aeromonas caviae; experiment: Antibacterial activity against Aeromonas caviae assessed as percent resistant isolates by broth microdilution method; assay type: functional
[35] = test system: Aeromonas sobria; experiment: Antibacterial activity against Aeromonas sobria assessed as percent susceptible isolates by broth microdilution method; assay type: functional
[36] = test system: Aeromonas sobria; experiment: Antibacterial activity against Aeromonas sobria assessed as percent resistant isolates by broth microdilution method; assay type: functional
[37] = test system: Aeromonas veronii; experiment: Antibacterial activity against Aeromonas veronii assessed as percent susceptible isolates by broth microdilution method; assay type: functional
[38] = test system: Aeromonas veronii; experiment: Antibacterial activity against Aeromonas veronii assessed as percent resistant isolates by broth microdilution method; assay type: functional
[39] = test system: Plesiomonas shigelloides; experiment: Antibacterial activity against Plesiomonas shigelloides assessed as percent susceptible isolates by broth microdilution method; assay type: functional
[40] = test system: Plesiomonas shigelloides; experiment: Antibacterial activity against Plesiomonas shigelloides assessed as percent resistant isolates by broth microdilution method; assay type: functional
[41] = test system: Vibrio cholerae; experiment: Antibacterial activity against Vibrio cholerae assessed as percent susceptible isolates by broth microdilution method; assay type: functional
[42] = test system: Vibrio cholerae; experiment: Antibacterial activity against Vibrio cholerae assessed as percent resistant isolates by broth microdilution method; assay type: functional
[43] = test system: Vibrio parahaemolyticus; experiment: Antibacterial activity against Vibrio parahaemolyticus assessed as percent susceptible isolates by broth microdilution method; assay type: functional
[44] = test system: Vibrio parahaemolyticus; experiment: Antibacterial activity against Vibrio parahaemolyticus assessed as percent resistant isolates by broth microdilution method; assay type: functional
[45] = test system: Vibrio alginolyticus; experiment: Antibacterial activity against Vibrio alginolyticus assessed as percent susceptible isolates by broth microdilution method; assay type: functional
[46] = test system: Vibrio alginolyticus; experiment: Antibacterial activity against Vibrio alginolyticus assessed as percent resistant isolates by broth microdilution method; assay type: functional
[47] = test system: Vibrio fluvialis; experiment: Antibacterial activity against Vibrio fluvialis assessed as percent susceptible isolates by broth microdilution method; assay type: functional
[48] = test system: Vibrio fluvialis; experiment: Antibacterial activity against Vibrio fluvialis assessed as percent resistant isolates by broth microdilution method; assay type: functional
[49] = test system: Vibrio vulnificus; experiment: Antibacterial activity against Vibrio vulnificus assessed as percent susceptible isolates by broth microdilution method; assay type: functional
[50] = test system: Vibrio vulnificus; experiment: Antibacterial activity against Vibrio vulnificus assessed as percent resistant isolates by broth microdilution method; assay type: functional
[51] = test system: Vibrio sp.; experiment: Antibacterial activity against Vibrio sp. assessed as percent susceptible isolates by broth microdilution method; assay type: functional
[52] = test system: Vibrio sp.; experiment: Antibacterial activity against Vibrio sp. assessed as percent resistant isolates by broth microdilution method; assay type: functional
[53] = test system: Campylobacter jejuni; experiment: Antibacterial activity against Campylobacter jejuni assessed as percent susceptible isolates by broth microdilution method; assay type: functional; settings: pooled result: one value given for 2 cell lines, strains, targets or settings
[54] = test system: Campylobacter jejuni; experiment: Antibacterial activity against Campylobacter jejuni assessed as percent resistant isolates by broth microdilution method; assay type: functional; settings: pooled result: one value given for 2 cell lines, strains, targets or settings

CO[C@H]1/C=C/O[C@@]2(C)Oc3c(C)c(O)c4c(O)c(c5c(nc6cc(C)ccn65)c4c3C2=O)NC(=O)/C(C)=C\C=C\[C@H](C)[C@H](O)[C@@H](C)[C@@H](O)[C@@H](C)[C@H](OC(C)=O)[C@@H]1C [RIFAXIMIN]
16 µg/mL: MIC90 [1] | MIC90 [2] | MIC90 [3] | MIC90 [4] | MIC90 [5] | MIC90 [6] | MIC90 [7]
4 µg/mL: MIC50 [8] | MIC50 [9] | MIC50 [10] | MIC50 [11] | MIC50 [12] | MIC50 [13]
32 µg/mL: MIC50 [21] | MIC90 [21] | MIC50 [22] | MIC90 [22]
1 µg/mL: MIC90 [15] | MIC90 [16] | MIC90 [17] | MIC90 [18] | MIC90 [19] | MIC90 [20]
8 µg/mL: MIC50 [1] | MIC50 [2] | MIC50 [3] | MIC50 [4] | MIC50 [5] | MIC50 [6] | MIC50 [7] | MIC90 [8] | MIC90 [9] | MIC90 [10] | MIC90 [11] | MIC90 [12] | MIC90 [13] | MIC [14] | MIC50 [14]
0.5 µg/mL: MIC50 [15] | MIC50 [16] | MIC50 [17] | MIC50 [18] | MIC50 [19] | MIC50 [20]

C[C@H]1c2cccc(O)c2C(=O)C2=C(O)[C@]3(O)C(=O)C(C(N)=O)=C(O)[C@@H](N(C)C)[C@@H]3[C@@H](O)[C@@H]21.O [DOXYCYCLINE]
33.9%: Activity [54]
2 µg/mL: MIC50 [1] | MIC50 [2] | MIC50 [3] | MIC90 [8] | MIC90 [9]
0.5 µg/mL: MIC50 [10] | MIC50 [11] | MIC50 [12] | MIC50 [13]
16%: Activity [24]
32 µg/mL: MIC90 [2] | MIC90 [3] | MIC90 [4] | MIC90 [5] | MIC90 [6] | MIC90 [7]
0%: Activity [32] | Activity [34] | Activity [36] | Activity [38] | Activity [40] | Activity [42] | Activity [44] | Activity [46] | Activity [48] | Activity [50] | Activity [52]
82.2%: Activity [26]
≤ 0.12 µg/mL: MIC [14] | MIC50 [14] | MIC [15] | MIC50 [15] | MIC90 [15] | MIC [16] | MIC50 [16] | MIC90 [16] | MIC [17] | MIC50 [17] | MIC90 [17] | MIC [18] | MIC50 [18] | MIC90 [18] | MIC [19] | MIC50 [19] | MIC90 [19] | MIC [20] | MIC50 [20] | MIC90 [20] | MIC [21] | MIC50 [21] | MIC [22] | MIC50 [22]
59.6%: Activity [53]
16 µg/mL: MIC90 [1] | MIC50 [4] | MIC50 [5] | MIC50 [6] | MIC50 [7] | MIC90 [21] | MIC90 [22]
13.9%: Activity [25]
34.7%: Activity [28]
100%: Activity [31] | Activity [33] | Activity [35] | Activity [37] | Activity [39] | Activity [41] | Activity [43] | Activity [45] | Activity [47] | Activity [49] | Activity [51]
1 µg/mL: MIC50 [8] | MIC50 [9] | MIC90 [10] | MIC90 [11] | MIC90 [12] | MIC90 [13]
95.7%: Activity [29]
76%: Activity [23]
52.5%: Activity [27]
4.3%: Activity [30]
